Patent US12157730B2, “Heteroaryl derivative, method for producing same, and pharmaceutical composition comprising same as effective component” (VORONOI INC., priority 2019, dated 2024)

Columns and labels:
Type in all cases: cell-based
[1] = molecular target: T1, Ba/F3 cell EGFR L858R/T790M (Homo sapiens, UniProt P00533, L858R/T790M); assay: Ba/F3 cell proliferation suppression, EGFR L858R/T790M; details: 72 hours after treatment, CellTiter-Glo
T1 construct: expressed in transfected cells; host or cells: Ba/F3
Description: (§1) The following experiment was carried out to evaluate the suppression activity of the compounds according to the present invention against proliferation of Ba/F3 and lung cancer cells which express EGFR mutations.
(§2) Of the cancer cell lines expressing the EGFR gene, A549 was cultured after adding 10% FBS (HyClone) to DMEM (Invitrogen), and RPMI-1640 (Invitrogen) with 10% FBS was used for the other cancer cells. For the Ba/F3 cells, RPMI-1640 with 10% FBS and 5 ng/ml IL-3 (R&D Systems) was used. The transduced Ba/F3 cells were cultured by adding 1 ug/ml puromycin (Invitrogen) to the same medium.
(§3) 24 hours before treatment with the compounds, 3000 to 5000 cells were distributed into each well of a white clear bottom 96 well plate (Corning). The compounds were diluted in dimethylsulfoxide (dilution ratio 3:1; 12 concentrations total) and injected 0.5 ul each for a final concentration of 0.3 nM to 50 um. As for measurement of live cells, 72 hours after treatment with the compounds, a CellTiter-Glo luminescent cell-viability reagent (Promega) was used to store the cells at room temperature for 10 minutes, followed by measurement of luminescence using a reader (SynergyNeo, Biotek). Each test was repeated three times.
(§4) The result was calculated as a cell growth ratio (%) compared to a control. The program GraphPad Prism version 5.0 was used to draw the graphs and calculate the GI50 values.

[2] = molecular target: T2, Ba/F3 cell EGFR Exon20 ins NPH (Homo sapiens, UniProt P00533, INS773NPH); assay: Ba/F3 cell proliferation suppression, EGFR Exon20 ins NPH; details: for GI50: 72 hours after treatment, CellTiter-Glo; for Ba/F3 (NPH) Activity: GI50 class, Ba/F3 cell line with NPH inserted at Exon20 of EGFR, 72 hours
T2 construct: expressed in transfected cells; host or cells: Ba/F3
Procedure, shortened: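 Seed 3000–5000 cells/well; after 24 h add compound (12 conc., 0.3 nM–50 um final); incubate 72 h; add CellTiter-Glo, 10 min room temperature; read luminescence; GI50 from % growth vs control, triplicate.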

Ba/F3 cell naive = assay: Ba/F3 cell proliferation suppression, naive; details: Mus musculus, BaF3; 72 hours after treatment, CellTiter-Glo
Description: as §1, §2, §3, §4

[3] = tested on: Ba/F3 cell EGFR Del19/T790M; assay: Ba/F3 cell proliferation suppression, EGFR Del19/T790M; details: 72 hours after treatment, CellTiter-Glo
Description: as §1, §2, §3, §4

Ba/F3 cell EGFR L858R = molecular target: T3, Ba/F3 cell EGFR L858R (Homo sapiens, UniProt P00533, L858R); assay: Ba/F3 cell proliferation suppression, EGFR L858R; details: 72 hours after treatment, CellTiter-Glo
T3 construct: expressed in transfected cells; host or cells: Ba/F3
Description: as §1, §2, §3, §4

[4] = molecular target: T4, Ba/F3 cell EGFR Exon20 ins ASV (Homo sapiens, UniProt P00533, INS769ASV); assay: Ba/F3 cell proliferation suppression, EGFR Exon20 ins ASV; details: 72 hours after treatment, CellTiter-Glo
T4 construct: expressed in transfected cells; host or cells: Ba/F3
Description: as §1, §2, §3, §4

[5] = molecular target: T5, Ba/F3 cell EGFR Exon20 ins SVD (Homo sapiens, UniProt P00533, INS770SVD); assay: Ba/F3 cell proliferation suppression, EGFR Exon20 ins SVD; details: 72 hours after treatment, CellTiter-Glo
T5 construct: expressed in transfected cells; host or cells: Ba/F3
Description: as §1, §2, §3, §4

[6] = molecular target: T6, Ba/F3 cell HER2 Exon20 ins YVMA (Homo sapiens, UniProt P04626, INS775YVMA); assay: Ba/F3 cell proliferation suppression, HER2 Exon20 ins YVMA; details: 72 hours after treatment, CellTiter-Glo
T6 construct: expressed in transfected cells; host or cells: Ba/F3
T6 sequence (P04626 with tags, fused parts or gaps INS775YVMA): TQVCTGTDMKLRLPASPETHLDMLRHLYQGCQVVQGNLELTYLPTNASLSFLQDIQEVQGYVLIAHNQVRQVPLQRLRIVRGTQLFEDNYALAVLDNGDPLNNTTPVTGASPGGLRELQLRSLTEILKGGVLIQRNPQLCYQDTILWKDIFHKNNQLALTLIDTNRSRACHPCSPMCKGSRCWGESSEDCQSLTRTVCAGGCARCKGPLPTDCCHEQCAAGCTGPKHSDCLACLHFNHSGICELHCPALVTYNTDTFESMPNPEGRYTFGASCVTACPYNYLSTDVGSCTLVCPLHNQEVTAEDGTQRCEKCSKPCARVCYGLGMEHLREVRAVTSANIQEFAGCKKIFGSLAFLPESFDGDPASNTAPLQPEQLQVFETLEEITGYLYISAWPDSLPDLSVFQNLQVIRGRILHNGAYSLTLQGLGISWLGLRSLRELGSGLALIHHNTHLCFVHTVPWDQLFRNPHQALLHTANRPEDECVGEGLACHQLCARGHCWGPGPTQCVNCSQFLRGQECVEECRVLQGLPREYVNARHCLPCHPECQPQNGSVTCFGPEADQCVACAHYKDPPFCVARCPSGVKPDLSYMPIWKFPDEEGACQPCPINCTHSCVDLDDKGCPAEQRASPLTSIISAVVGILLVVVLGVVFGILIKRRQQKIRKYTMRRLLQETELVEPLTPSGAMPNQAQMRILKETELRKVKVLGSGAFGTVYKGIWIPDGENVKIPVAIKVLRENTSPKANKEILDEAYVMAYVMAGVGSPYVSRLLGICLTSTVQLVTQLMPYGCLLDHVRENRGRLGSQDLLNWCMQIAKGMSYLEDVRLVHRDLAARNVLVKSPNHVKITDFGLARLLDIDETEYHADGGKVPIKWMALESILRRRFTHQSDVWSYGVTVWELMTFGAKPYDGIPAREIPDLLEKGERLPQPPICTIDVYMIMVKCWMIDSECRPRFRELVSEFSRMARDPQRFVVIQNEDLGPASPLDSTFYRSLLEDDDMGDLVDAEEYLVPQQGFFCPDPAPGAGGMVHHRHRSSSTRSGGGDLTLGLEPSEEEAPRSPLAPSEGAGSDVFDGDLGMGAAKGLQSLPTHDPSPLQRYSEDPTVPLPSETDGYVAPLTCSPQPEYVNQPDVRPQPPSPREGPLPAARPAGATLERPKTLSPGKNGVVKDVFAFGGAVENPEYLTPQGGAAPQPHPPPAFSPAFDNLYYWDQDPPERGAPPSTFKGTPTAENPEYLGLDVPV
Description: as §1, §2, §3, §4

Structure (SMILES) | GI50 [1] [µM] | GI50 [2] [µM] | Ba/F3 (NPH) Activity [2] | GI50 (Ba/F3 cell naive) [µM] | GI50 [3] [µM] | GI50 (Ba/F3 cell EGFR L858R) [µM] | GI50 [4] [µM] | GI50 [5] [µM] | GI50 [6] [µM]
C=CC(=O)Nc1cc(Nc2cc(N3OCC[C@@H]3c3cc(F)cc(F)c3)ncn2)c(OC)cc1N1CCC(N2CCC(N(C)C)CC2)CC1 [Example 253] | < 0.05 | < 0.05 | A (GI50 < 50 nM) | 0.5 to 5 | – | – | – | – | –
C=CC(=O)Nc1cc(Nc2cc(N3OCC[C@@H]3c3ccccc3)ncn2)c(OC)cc1OCCN(C)C [Example 8, N-(2-(2-(dimethylamino)ethxy)-4-methoxy-5-((6-(R)-3-phenylisoxazolidine-2-yl)pyrimidine-4-yl-amino)phenyl) acrylamide] | 0.05 to 0.5 | – | – | 0.5 to 5 | 0.05 to 0.5 | – | – | – | –
C=CC(=O)Nc1cc(Nc2cc(N3OCC[C@H]3c3ccccc3)ncn2)c(OC)cc1N1CCOCC1 [Example 2, N-(4-methoxy-2-morpholino-5-((6-((S)-3-phenylisoxazolidine-2-yl)pyrimidine-4-yl)amino)phenyl) acrylamide] | 0.5 to 5 | – | – | ≥ 5 | 0.5 to 5 | 0.05 to 0.5 | – | – | –
C=CC(=O)Nc1cc(Nc2cc(N3OCC[C@@H]3c3ccccc3)ncn2)c(OC)cc1N1CCN(C2CC2)CC1 [Example 7, N-(2-(4-cyclopropylpiperazine-1-yl)-4-methoxy-5-((6-((R)-3-phenylisoxazolidine-2-yl)pyrimidine-4-yl)amino)phenyl) acrylamide] | 0.05 to 0.5 | – | – | ≥ 5 | < 0.05 | – | – | – | –
C=CC(=O)Nc1cc(Nc2cc(N3OCC[C@@H]3c3cc(F)cc(F)c3)ncn2)c(OC)cc1N1CCC(N2CC[C@H](N(C)C)C2)CC1 [Example 250, N-(5-((6-((R)-3-(3,5-difluorophenyl)isoxazolidine-2-yl)pyrimidine-4-yl)amino)-2-(4-((S)-3-(dimethylamino)pyrolidine-1-yl)piperidine-1-yl)-4-methoxyphenyl) acrylamide] | < 0.05 | < 0.05 | A (GI50 < 50 nM) | ≥ 5 | – | – | – | – | –
C=CC(=O)Nc1cc(Nc2cc(N3OCC[C@@H]3c3ccccc3)ncn2)c(OC)cc1N1CCOCC1 [Example 5, N-(4-methoxy-2-morpholino-5-((6-((R)-3-phenylisoxazolidine-2-yl)pyrimidine-4-yl)amino)phenyl) acrylamide] | 0.05 to 0.5 | – | – | ≥ 5 | 0.05 to 0.5 | < 0.05 | – | – | –
C=CC(=O)Nc1cc(Nc2cc(N3OCC[C@@H]3c3cc(F)cc(F)c3)ncn2)c(OC)cc1N1CCC(N2C3CC2CN(CC)C3)CC1 [Example 249, N-(5-((6-((R)-3-(3,5-difluorophenyl)isoxazolidine-2-yl)pyrimidine-4-yl)amino)-2-(4-(3-ethyl-3,6-diazabicyclo[3.1.1]heptane-6-yl)piperidine-1-yl)-4-methoxyphenyl) acrylamide] | < 0.05 | < 0.05 | A (GI50 < 50 nM) | ≥ 5 | – | – | – | – | –
C=CC(=O)Nc1cc(Nc2cc(N3OCC[C@@H]3c3cc(F)cc(F)c3)ncn2)c(OC)cc1N1CCN(CC)CC1 [Example 240, N-(5-((6-((R)-3-(3,5-difluorophenyl)isoxazolidine-2-yl)pyrimidine-4-yl)amino)-2-(4-ethylpiperazine-1-yl)-4-methoxyphenyl) acrylamide] | < 0.05 | < 0.05 | A (GI50 < 50 nM) | ≥ 5 | – | – | < 0.05 | – | –
C=CC(=O)Nc1cc(Nc2cc(N3OCC[C@@H]3c3cc(F)cc(F)c3)ncn2)c(OC)cc1N1CCC(N2CCN(C)CC2)CC1 [Example 26, N-(5-((6-((R)-3-(3,5-difluorophenyl)isoxazolidine-2-yl)pyrimidine-4-yl)amino)-4-methoxy-2-(4-(4-methylpiperazine-1-yl)piperidine-1-yl)phenyl)acrylamide] | < 0.05 | < 0.05 | A (GI50 < 50 nM) | ≥ 5 | – | – | – | < 0.05 | < 0.05
C=CC(=O)Nc1cc(Nc2cc(N3OCC[C@H]3c3ccccc3)ncn2)c(OC)cc1N(C)CCN(C)C [Example 1, N-(2((2-(dimethylamino)ethyl) (methyl)amino)-4-methoxy-5-((6-((S)-3-phenylisoxazolidine-2-yl)pyrimidine-4-yl)amino)phenyl) acrylamide] | 0.05 to 0.5 | – | – | ≥ 5 | 0.05 to 0.5 | < 0.05 | – | – | –
C=CC(=O)Nc1cc(Nc2cc(N3OCC[C@@H]3c3cc(F)cc(F)c3)ncn2)c(OC)cc1N1CCC(N2CC[C@@H](N(C)C)C2)CC1 [Example 237, N-(5-((6-((R)-3-(3,5-difluorophenyl)isoxazolidine-2-yl)pyrimidine-4-yl)amino)-2-(4-((R)-3-(dimethylamino)pyrolidine-1-yl)piperidine-1-yl)-4-methoxyphenyl) acrylamide] | < 0.05 | < 0.05 | A (GI50 < 50 nM) | ≥ 5 | – | – | < 0.05 | – | –
C=CC(=O)Nc1cc(Nc2cc(N3OCC[C@@H]3c3cc(F)cc(F)c3)ncn2)c(OC)cc1N1CCC(N2CC3CC(C2)N3CC)CC1 [Example 252, N-(5-((6-((R)-3-(3,5-difluorophenyl)isoxazolidine-2-yl)pyrimidine-4-yl)amino)-2-(4-(6-ethyl-3,6-diazabicyclo[3.1.1]heptane-3-yl)piperidine-1-yl)-4-methoxyphenyl) acrylamide] | < 0.05 | < 0.05 | A (GI50 < 50 nM) | 0.5 to 5 | – | – | – | – | –
C=CC(=O)Nc1cc(Nc2cc(N3OCC[C@@H]3c3cc(F)cc(F)c3)ncn2)c(OC)cc1N1CCC(N2CCN(C(C)=O)CC2)CC1 [Example 251, N-(2-(4-(4-acetylpiperazine-1-yl)piperidine-1-yl)-5-((6-((R)-3-(3,5-difluorophenyl)isoxazolidine-2-yl)pyrimidine-4-yl)amino)-4-methoxyphenyl) acrylamide] | < 0.05 | < 0.05 | A (GI50 < 50 nM) | ≥ 5 | – | – | – | – | –
C=CC(=O)Nc1cc(Nc2cc(N3OCC[C@@H]3c3ccc(F)c(F)c3F)ncn2)c(OC)cc1N1CCC(N2CCN(C3CC3)CC2)CC1 [Example 170, N-(2-(4-(4-cyclopropylpiperazine-1-yl)piperidine-1-yl)-4-methoxy-5-((6-((R)-3-(2,3,4-trifluorophenyl)isoxazolidine-2-yl)pyrimidine-4-yl)amino)phenyl)acrylamide] | – | – | A (GI50 < 50 nM) | – | – | – | – | – | –
C=CC(=O)Nc1cc(Nc2cc(N3OCC[C@@H]3c3ccc(Cl)c(Cl)c3F)ncn2)c(OC)cc1N1CCC(N2C[C@@H](C)O[C@@H](C)C2)CC1 [compound 773, N-(5-((6-((R)-3-(3,4-dichloro-2-fluorophenyl)isoxazolidine-2-yl)pyrimidine-4-yl)amino)-2-(4-((2S,6R)-2,6-dimethylmorpholino)piperidine-1-yl)-4-methoxyphenyl) acrylamide] | – | – | B (50 nM ≤ GI50 < 500 nM) | – | – | – | – | – | –
C=CC(=O)Nc1cc(Nc2cc(N3OCC[C@@H]3c3ccc(F)c(F)c3)ncn2)c(OC)cc1N1CC[C@@H](N(C)C)C1 [compound 577, N-(5-((6-((R)-3-(3,4-difluorophenyl)isoxazolidine-2-yl)pyrimidine-4-yl)amino)-2-((R)-3-(dimethylamino)pyrolidine-1-yl)-4-methoxyphenyl) acrylamide] | – | – | A (GI50 < 50 nM) | – | – | – | – | – | –
